# Source: US20230263822A1, “MODULATION OF FACTOR 11 EXPRESSION” (Ionis Pharmaceuticals, Inc., priority 2008, published 2023)
# Strand notation (5' to 3'): a small letter for the sugar, then the base; units joined by * are phosphorothioate-linked, units joined directly phosphodiester-linked; [ ] holds rarer units or linkages, { } end groups; capitals alone tell only the bases. e = 2'-O-(2-methoxyethyl) (MOE); [5mC] = 5-methylcytosine; d = 2'-deoxy (DNA)
# Columns and labels:
# [1] = Hematology assays in cynomolgus monkeys (Example 46); type: in vivo
# Description: (§1) Groups, each consisting of two male and two female monkeys, were injected subcutaneously with 25 mg/kg of ISIS 416850, ISIS 449709, ISIS 445522, ISIS 449710, ISIS 449707, ISIS 449711, ISIS 449708, 416858, and ISIS 445531. Antisense oligonucleotide was administered to the monkeys at 25 mg/kg three times per week for week 1 and 25 mg/kg twice per week for weeks 2 to 8. A control group, consisting of two male and two female monkeys was injected subcutaneously with PBS according to the same dosing regimen. Body weights were taken 14 days and 7 days before the start of treatment and were then measured weekly throughout the treatment period. Blood samples were collected 14 days and 5 days before the start of treatment and subsequently several times during the dosing regimen for PT and aPTT measurements, and measurement of various hematologic factors. On day 55, the monkeys were euthanized by exsanguination while under deep anesthesia, and organs harvested for further analysis.
# blood coagulation = assay: PT and aPTT assay in cynomolgus monkeys (Example 46); type: in vivo; details: platelet poor plasma, relative to PBS group
# Description: as §1
# PT and aPTT were measured using platelet poor plasma (PPP) from […] treated with ISIS oligonucleotides. PT and aPTT values are provided in Tables 148 and 149 and are reported as International Normalized Ratio (INR) values. INR values for PT and aPTT were determined by dividing the PT or aPTT value for each experimental group by the PT or aPTT for the PBS treated group. This ratio was then raised to the power of the International Sensitivity Index (ISI) of the tissue factor used. […] Therefore, antisense reduction of Factor 11 with these ISIS oligonucleotides is useful for inhibiting the formation of a thrombus or clot in response to an abnormal vessel wall, but not in response to tissue injury.
substance,measurement,setting,value
"ISIS 449708: 3-8-3, 4-8-4, 2-10-2, 3-10-3 or 4-10-4 MOE microwalk gapmer (Table 46) (antisense eA*e[5mC]*eA*dG*dT*dT*dT*d[5mC]*dT*dG*dG*e[5mC]*eA*eG)",HCT,[1]; Day 17,44%
same,MCH,[1]; Day 17,22.9 pg
same,MCHC,[1]; Day 17,30.7 g/dL
same,MCV,[1]; Day 17,75 fL
same,RBC count,[1]; Day 17,5.9e+06 µL⁻¹
same,WBC count,[1]; Day 17,11000 µL⁻¹
same,hemoglobin content,[1]; Day 17,13.5 g/dL
same,monocytes,[1]; Day 17,5.4%
same,neutrophils,[1]; Day 17,61%
same,platelet count,[1]; Day 17,444 ×100/μL
same,HCT,[1]; Day 31,43%
same,MCH,[1]; Day 31,22.7 pg
same,MCHC,[1]; Day 31,29.9 g/dL
same,MCV,[1]; Day 31,75 fL
same,RBC count,[1]; Day 31,5.8e+06 µL⁻¹
same,WBC count,[1]; Day 31,11000 µL⁻¹
same,hemoglobin content,[1]; Day 31,13.0 g/dL
same,monocytes,[1]; Day 31,5.8%
same,neutrophils,[1]; Day 31,57%
same,platelet count,[1]; Day 31,378 ×100/μL
same,HCT,[1]; Day 45,44%
same,MCH,[1]; Day 45,22.2 pg
same,MCHC,[1]; Day 45,30.6 g/dL
same,MCV,[1]; Day 45,74 fL
same,RBC count,[1]; Day 45,6e+06 µL⁻¹
same,WBC count,[1]; Day 45,10000 µL⁻¹
same,hemoglobin content,[1]; Day 45,13.3 g/dL
same,monocytes,[1]; Day 45,7.0%
same,neutrophils,[1]; Day 45,61%
same,platelet count,[1]; Day 45,381 ×100/μL
same,HCT,[1]; Day 55,42%
same,MCH,[1]; Day 55,22.5 pg
same,MCHC,[1]; Day 55,31.8 g/dL
same,MCV,[1]; Day 55,74 fL
same,RBC count,[1]; Day 55,5.8e+06 µL⁻¹
same,WBC count,[1]; Day 55,10000 µL⁻¹
same,hemoglobin content,[1]; Day 55,13.0 g/dL
same,monocytes,[1]; Day 55,6.2%
same,neutrophils,[1]; Day 55,75%
same,platelet count,[1]; Day 55,348 ×100/μL
same,HCT,[1]; Day-5,44%
same,MCH,[1]; Day-5,22.7 pg
same,MCHC,[1]; Day-5,30.2 g/dL
same,MCV,[1]; Day-5,75 fL
same,RBC count,[1]; Day-5,5.9e+06 µL⁻¹
same,WBC count,[1]; Day-5,10000 µL⁻¹
same,hemoglobin content,[1]; Day-5,13.2 g/dL
same,monocytes,[1]; Day-5,2.6%
same,neutrophils,[1]; Day-5,84%
same,platelet count,[1]; Day-5,517 ×100/μL
same,HCT,[1]; Day-14,41%
same,MCH,[1]; Day-14,22.9 pg
same,MCHC,[1]; Day-14,31.4 g/dL
same,MCV,[1]; Day-14,73 fL
same,RBC count,[1]; Day-14,5.7e+06 µL⁻¹
same,WBC count,[1]; Day-14,14000 µL⁻¹
same,hemoglobin content,[1]; Day-14,13.0 g/dL
same,monocytes,[1]; Day-14,1.7%
same,neutrophils,[1]; Day-14,73%
same,platelet count,[1]; Day-14,387 ×100/μL
same,PT ratio (INR),blood coagulation; Day 10,0.98
same,aPTT ratio relative to PBS group,blood coagulation; Day 10,1.06
same,PT ratio (INR),blood coagulation; Day 17,1.00
same,aPTT ratio relative to PBS group,blood coagulation; Day 17,1.05
same,PT ratio (INR),blood coagulation; Day 24,0.95
same,aPTT ratio relative to PBS group,blood coagulation; Day 24,1.01
same,PT ratio (INR),blood coagulation; Day 31,1.06
same,aPTT ratio relative to PBS group,blood coagulation; Day 31,1.09
same,PT ratio (INR),blood coagulation; Day 38,0.99
same,aPTT ratio relative to PBS group,blood coagulation; Day 38,1.06
same,PT ratio (INR),blood coagulation; Day 45,0.99
same,aPTT ratio relative to PBS group,blood coagulation; Day 45,1.06
same,PT ratio (INR),blood coagulation; Day 52,0.99
same,aPTT ratio relative to PBS group,blood coagulation; Day 52,1.08
same,PT ratio (INR),blood coagulation; Day 55,1.04
same,aPTT ratio relative to PBS group,blood coagulation; Day 55,1.11
same,PT ratio (INR),blood coagulation; Day −5,0.95
same,aPTT ratio relative to PBS group,blood coagulation; Day −5,1.01
same,PT ratio (INR),blood coagulation; Day −14,1.03
same,aPTT ratio relative to PBS group,blood coagulation; Day −14,1.07
"ISIS 449709: 3-8-3, 4-8-4, 2-10-2, 3-10-3 or 4-10-4 MOE microwalk gapmer (Table 46) (antisense eG*e[5mC]*eA*e[5mC]*dA*dG*dT*dT*dT*d[5mC]*dT*dG*dG*d[5mC]*eA*eG*eG*e[5mC])",HCT,[1]; Day 17,43%
same,MCH,[1]; Day 17,22.5 pg
same,MCHC,[1]; Day 17,30.7 g/dL
same,MCV,[1]; Day 17,73 fL
same,RBC count,[1]; Day 17,5.9e+06 µL⁻¹
same,WBC count,[1]; Day 17,11000 µL⁻¹
same,hemoglobin content,[1]; Day 17,13.2 g/dL
same,monocytes,[1]; Day 17,3.0%
same,neutrophils,[1]; Day 17,89%
same,platelet count,[1]; Day 17,449 ×100/μL
same,HCT,[1]; Day 31,42%
same,MCH,[1]; Day 31,22.2 pg
same,MCHC,[1]; Day 31,30.7 g/dL
same,MCV,[1]; Day 31,73 fL
same,RBC count,[1]; Day 31,5.9e+06 µL⁻¹
same,WBC count,[1]; Day 31,11000 µL⁻¹
same,hemoglobin content,[1]; Day 31,13.1 g/dL
same,monocytes,[1]; Day 31,2.8%
same,neutrophils,[1]; Day 31,81%
same,platelet count,[1]; Day 31,471 ×100/μL
same,HCT,[1]; Day 45,41%
same,MCH,[1]; Day 45,21.0 pg
same,MCHC,[1]; Day 45,31.1 g/dL
same,MCV,[1]; Day 45,71 fL
same,RBC count,[1]; Day 45,5.7e+06 µL⁻¹
same,WBC count,[1]; Day 45,11000 µL⁻¹
same,hemoglobin content,[1]; Day 45,12.6 g/dL
same,monocytes,[1]; Day 45,3.6%
same,neutrophils,[1]; Day 45,77%
same,platelet count,[1]; Day 45,418 ×100/μL
same,HCT,[1]; Day 55,40%
same,MCH,[1]; Day 55,22.0 pg
same,MCHC,[1]; Day 55,31.2 g/dL
same,MCV,[1]; Day 55,71 fL
same,RBC count,[1]; Day 55,5.7e+06 µL⁻¹
same,WBC count,[1]; Day 55,10000 µL⁻¹
same,hemoglobin content,[1]; Day 55,12.5 g/dL
same,monocytes,[1]; Day 55,3.4%
same,neutrophils,[1]; Day 55,115%
same,platelet count,[1]; Day 55,441 ×100/μL
same,HCT,[1]; Day-5,42%
same,MCH,[1]; Day-5,22.3 pg
same,MCHC,[1]; Day-5,30.3 g/dL
same,MCV,[1]; Day-5,74 fL
same,RBC count,[1]; Day-5,5.8e+06 µL⁻¹
same,WBC count,[1]; Day-5,10000 µL⁻¹
same,hemoglobin content,[1]; Day-5,12.8 g/dL
same,monocytes,[1]; Day-5,2.0%
same,neutrophils,[1]; Day-5,101%
same,platelet count,[1]; Day-5,481 ×100/μL
same,HCT,[1]; Day-14,41%
same,MCH,[1]; Day-14,22.4 pg
same,MCHC,[1]; Day-14,31.4 g/dL
same,MCV,[1]; Day-14,72 fL
same,RBC count,[1]; Day-14,5.8e+06 µL⁻¹
same,WBC count,[1]; Day-14,11000 µL⁻¹
same,hemoglobin content,[1]; Day-14,12.8 g/dL
same,monocytes,[1]; Day-14,4.0%
same,neutrophils,[1]; Day-14,73%
same,platelet count,[1]; Day-14,456 ×100/μL
same,PT ratio (INR),blood coagulation; Day 10,0.95
same,aPTT ratio relative to PBS group,blood coagulation; Day 10,0.99
same,PT ratio (INR),blood coagulation; Day 17,0.95
same,aPTT ratio relative to PBS group,blood coagulation; Day 17,1.03
same,PT ratio (INR),blood coagulation; Day 24,0.95
same,aPTT ratio relative to PBS group,blood coagulation; Day 24,1.05
same,PT ratio (INR),blood coagulation; Day 31,0.95
same,aPTT ratio relative to PBS group,blood coagulation; Day 31,1.08
same,PT ratio (INR),blood coagulation; Day 38,0.97
same,aPTT ratio relative to PBS group,blood coagulation; Day 38,1.08
same,PT ratio (INR),blood coagulation; Day 45,0.97
same,aPTT ratio relative to PBS group,blood coagulation; Day 45,1.15
same,PT ratio (INR),blood coagulation; Day 52,0.99
same,aPTT ratio relative to PBS group,blood coagulation; Day 52,1.09
same,PT ratio (INR),blood coagulation; Day 55,1.03
same,aPTT ratio relative to PBS group,blood coagulation; Day 55,1.17
same,PT ratio (INR),blood coagulation; Day −5,0.96
same,aPTT ratio relative to PBS group,blood coagulation; Day −5,0.91
same,PT ratio (INR),blood coagulation; Day −14,1.00
same,aPTT ratio relative to PBS group,blood coagulation; Day −14,0.99
